The text below walks through data of paper PMC5785531, “Pharmacokinetic parameters explain the therapeutic activity of antimicrobial agents in a silkworm infection model” (Scientific Reports, 2018).

Data set [1] has as its system S. aureus MRSA4. The data set is described as follows: MIC against S. aureus MRSA4 in vitro (broth dilution). The format is cell-based. To be noted: Staphylococcus aureus. An excerpt: We synthesized 50 compounds (Fig. 2, Supplementary Table 1) using the Steglich esterification scheme[31] in the presence of a […], 1-ethyl-3-(3-dimethylaminopropyl)-carbodiimide hydrochloride (Fig. 1b). Antimicrobial activities of the compounds were examined by determining the MIC against S. aureus MRSA4 in vitro; therapeutic activities were examined using a systemic infection model of silkworms infected with S. aureus MSSA1. […]
(§1) Antimicrobial activity was assessed by determining the MIC by broth dilution assay according to our previous reports[21],[35],[36] as per the Clinical and Laboratory Standards Institute[37]. Briefly, serial dilutions of compound 5, compound 7, and positive controls were prepared in cation-adjusted Mueller-Hinton Broth (MHB, Difco, Franklin Lakes, NJ, USA), 100 µl of which was dispensed into each well of a round-bottomed 96-well plate. The final concentrations in the well ranged from 128 µg/ml to 0.0625 µg/ml. Bacteria were grown at 37 °C overnight on either Luria Bertani (tryptone 10 g/l, yeast extract 5 g/l, NaCl 10 g/l) or Tryptic Soy Broth (TSB, Difco) agar plates or sheep blood agar plates (Eiken Chemical Co. Ltd., Tokyo, Japan). Bacterial inoculum was prepared by direct suspension of the colonies in 0.9% saline, and adjusted to obtain a turbidity equivalent to a 0.5 McFarland standard using a spectrophotometer UV-1280 (Shimadzu Corp., Kyoto, Japan). The suspension was then diluted 1:20 in cation-adjusted MHB (Difco), and 10 µl of it was inoculated into each well of previously prepared 96-well plates containing compounds to obtain approximately 5 × 10^4 colony forming units/well and incubated at 37 °C for 20 h. […] Vancomycin (Wako Pure Chemicals) or norfloxacin (Sigma Aldrich, St Louis, MO, USA) were used as positive controls. Each plate contained a growth control well and a vehicle control well. The MIC was determined as the minimum concentration that inhibited the growth of the bacteria.

Data set [2] in a line: Pharmacokinetics in silkworm hemolymph after intra-hemolymph injection. The format is in vivo, Silkworms (Bombyx mori). The note with it: for Cmax / AUC(0-t) / k el / AUC(0-inf) / C0 / clearance / MRT inf / Vd / half-life: Hu•Yo × Tsukuba•Ne, 50 ug, injected dose 50 μg intra-hemolymph; for AUC(0-t): 0 to last measured value (5 h); for k el: PKSolver non-compartment analysis, read-out: Lambda_z (converted); for AUC(0-inf): extrapolated to infinity; for C0: read-out: C0 (initial concentration, extrapolated time-zero value); for clearance: read-out: Cl (total clearance); for MRT inf: read-out: MRT 0-inf (mean residence time) (converted); for Vd: read-out: Vss (volume of distribution at steady state); for half-life: read-out: t1/2 (half-life at terminal phase). As to the method: To gain an insight into the reason for the difference in the therapeutic activities of compounds 5 and 7, we evaluated the pharmacokinetic properties of both compounds in vivo in silkworms. We injected silkworms into the hemolymph with compound 5 or compound 7 (50 µg each) and collected the hemolymph from each injected silkworm at different time-points for high performance liquid chromatography (HPLC) analysis. The concentration-time profile was plotted and the pharmacokinetic parameters were analyzed using PKSolver[32] (Fig. 3a,b). […] The volume of distribution at steady state (Vss) value of compound 7 was larger than that of compound 5, further indicating the higher distribution capacity of compound 7 compared with compound 5. The concentrations of compounds 5 and 7 in the hemolymph decreased with time, with compound 7 having faster rate of elimination than compound 5. At 5 h, the concentration of compound 5 in the hemolymph was approximately 10-fold higher than that of 7. […] Both the area under the curves (AUC) at 5 h and that extrapolated to infinity were higher for compound 5 than for compound 7 in the silkworm.
Silkworms larvae hatched from eggs (Hu•Yo × Tsukuba•Ne, Ehime Sanshu, Ehime, Japan) were fed Silkmate 2S (Nosan Corporation, Yokohama, Japan) and grown at 27 °C until the fourth molt stage. They were, then, fed an antibiotic-free artificial food, Silkmate (Katakura Industries Co., Ltd., Tokyo, Japan), on the first day of fifth-instar larval stage. The next day, larvae (~2 g) were injected into the hemolymph with 50 µg of compounds 5 and 7 using a 1 ml syringe with a 27 G needle (Terumo Corporation, Tokyo, Japan). Silkworms were incubated after injection at 27 °C without feeding. The hemolymph was harvested from the limbs of individual silkworms at the indicated time, and the silkworms were killed after the harvest. The harvested hemolymph was mixed with an equal volume of acetonitrile followed by centrifugation at 15, 000 rpm for 10 min at 4 °C. The supernatant was collected, evaporated, and dissolved into 50% acetonitrile. The samples thus prepared were analyzed by high performance liquid chromatography (HPLC) equipped with a Waters 2998 Photodiode Array Detector (Waters Corporation, Milford, MA, USA) and a Waters 2707 Autosampler (Waters) using a Senshu-Pak Pegasil ODS-SP-100 column (4.6 Ø × 250 mm; Senshu Scientific, Tokyo, Japan) with gradient elution of 50–100% acetonitrile for 30 min at a flow rate of 1 ml/min. Standard curves for each compound were drawn by measuring the peak area on HPLC charts, and the amounts of each compound in the sample were determined. Mean concentrations from triplicate experiments were determined for each time-point and the pharmacokinetic parameters were determined using the PKSolver 2.0 ‘add-in’ for Excel 2007 on a computer running Windows 7[32]. Non-compartment analysis was performed with area under the curve calculated using the linear trapezoidal method. The terminal elimination slope, λz was calculated based on default parameters. Statistical analysis was performed using Prism 5 for Mac OS X, version 5.0 f (GraphPad Software, La Jolla, CA).

The subject of data set [3] is Streptococcus pneumoniae (clinical isolate). Briefly: MIC by broth microdilution assay. The format is cell-based. The note with it: MHB with 2.5% lysed horse blood, 24 h, median of three experiments. As for the experimental part: as §1, with “obtain approximately 5 × 10^4 colony forming units/well and incubated at 37 °C for 20 h.” left out
On the technique in general: In broth dilution the organism is exposed to a series of concentrations in liquid medium.

Data set [4] has as its system Streptococcus pyogenes SSI-9. Briefly: MIC by broth microdilution assay. The format is cell-based. To be noted: SSI9, MHB with 2.5% lysed horse blood, 24 h, median of three experiments. As to the method:
as §1, with “obtain approximately 5 × 10^4 colony forming units/well and incubated at 37 °C for 20 h.” left out

[5] abbreviates: MRSA, MRSA4 (clinical isolate), median of three experiments (Table 1).
Setting [6] is: S. aureus MRSA4 in vitro, SAR series (Fig. 2).

The structures appear in SMILES notation. Values after ≈ are worked out from the molar mass of the structure shown.

For orientation: MIC means the lowest concentration that inhibits growth of the organism. Higher therefore signals weaker potency. One may read the Cmax as the highest concentration seen after dosing. As a reminder, the AUC(0-t) is the area under the concentration-time curve up to a stated or last time point. In general, AUC(0-inf) refers to the area under the concentration-time curve extrapolated to infinity. The term clearance denotes the volume of plasma or blood freed of the substance per unit of time. Broadly, the MRT inf is a mean duration of stay, worked out from the concentration-time curve.

In data set [1] (setting [5]), `O=C(OCc1cc(Cl)cc(Cl)c1)c1ccc([N+](=O)[O-])s1` [compound 5] displayed an MIC of 0.5 mg/L (≈ 1.51 µM). Also, in data set [1] (setting [6]), the MIC amounted to 0.5 mg/L (≈ 1.51 µM). Moreover, in data set [2], the highest level (Cmax) was 23 µg/mL, the AUC(0-t) was 3 µg·h/mL, the k el was 8.33e-05 s⁻¹ and the AUC(0-inf) was 3.48 µg·h/mL. In addition, in data set [2], the C0 was 24 µg/mL, the clearance is 0.23 mL/min, the MRT inf is 2.08 h and the Vd was determined as 0.03 L. In addition, the half-life in data set [2] came out at 2.33 h. Further, the “concentration in the hemolymph relative to compound 7” value in data set [2] (at 5 h after injection of 50 µg) is on record as “approximately 10 fold”. This molecule showed an MIC in data set [3] of 1 mg/L (≈ 3.01 µM). The MIC in data set [4] was determined as 8 mg/L (≈ 24.1 µM).
On to `O=C(OCc1ccccc1)c1ccc([N+](=O)[O-])s1` [compound 7], for which the MIC in data set [1] (setting [5]) was 1 mg/L (≈ 3.8 µM). The MIC in data set [1] (setting [6]) is 1 mg/L (≈ 3.8 µM). Moreover, in data set [2], the Cmax was 7 µg/mL, the AUC(0-t) is 0.733 µg·h/mL, the k el is 0.000217 s⁻¹ and the AUC(0-inf) is 0.733 µg·h/mL. For the same molecule, in data set [2], the C0 is 7 µg/mL, the clearance was 1.1 mL/min, the MRT inf was 0.733 h and the Vd was found to be 0.044 L. In addition, the half-life in data set [2] was 0.883 h. In data set [3], this molecule came in with an MIC of 1 mg/L (≈ 3.8 µM). In data set [4], the MIC was 16 mg/L (≈ 60.8 µM).
